Legend:
Homo sapiens = organism: Homo sapiens; experiment: Selectivity index, ratio of IC50 for human PDE4D to IC50 for human PDE4B
[1] = biological target: T1, 3',5'-cyclic-AMP phosphodiesterase 4B (Homo sapiens, UniProt Q07343); experiment: Inhibition of human PDE4B
[2] = biological target: T2, 3',5'-cyclic-AMP phosphodiesterase 4D (Homo sapiens, UniProt Q08499); experiment: Inhibition of human PDE4D
[3] = biological target: T2, 3',5'-cyclic-AMP phosphodiesterase 4D; experiment: Inhibition of human PDE4D7
[4] = biological target: T1, 3',5'-cyclic-AMP phosphodiesterase 4B; experiment: Inhibition of human PDE4B1

T1 sequence (Q07343 whole entry): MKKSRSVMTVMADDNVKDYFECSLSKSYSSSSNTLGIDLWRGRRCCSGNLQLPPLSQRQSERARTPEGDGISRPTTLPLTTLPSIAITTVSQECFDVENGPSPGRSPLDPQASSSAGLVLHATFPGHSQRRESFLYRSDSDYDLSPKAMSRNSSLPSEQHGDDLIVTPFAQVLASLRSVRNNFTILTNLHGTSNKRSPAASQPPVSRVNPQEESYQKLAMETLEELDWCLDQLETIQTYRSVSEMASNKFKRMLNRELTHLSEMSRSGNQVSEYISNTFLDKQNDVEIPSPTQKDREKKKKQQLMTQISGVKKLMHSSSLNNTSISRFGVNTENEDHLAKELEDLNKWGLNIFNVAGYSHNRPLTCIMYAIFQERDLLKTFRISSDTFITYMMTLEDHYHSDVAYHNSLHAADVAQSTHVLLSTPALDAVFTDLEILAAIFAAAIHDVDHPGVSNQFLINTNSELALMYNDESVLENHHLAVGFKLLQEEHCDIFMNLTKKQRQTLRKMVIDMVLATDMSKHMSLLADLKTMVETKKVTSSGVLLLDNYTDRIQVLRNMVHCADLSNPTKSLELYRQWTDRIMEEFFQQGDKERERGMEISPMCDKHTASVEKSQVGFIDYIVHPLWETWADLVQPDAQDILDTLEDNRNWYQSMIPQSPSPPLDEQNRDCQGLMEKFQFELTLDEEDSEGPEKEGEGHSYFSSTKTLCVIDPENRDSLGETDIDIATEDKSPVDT
T2 sequence (Q08499 whole entry): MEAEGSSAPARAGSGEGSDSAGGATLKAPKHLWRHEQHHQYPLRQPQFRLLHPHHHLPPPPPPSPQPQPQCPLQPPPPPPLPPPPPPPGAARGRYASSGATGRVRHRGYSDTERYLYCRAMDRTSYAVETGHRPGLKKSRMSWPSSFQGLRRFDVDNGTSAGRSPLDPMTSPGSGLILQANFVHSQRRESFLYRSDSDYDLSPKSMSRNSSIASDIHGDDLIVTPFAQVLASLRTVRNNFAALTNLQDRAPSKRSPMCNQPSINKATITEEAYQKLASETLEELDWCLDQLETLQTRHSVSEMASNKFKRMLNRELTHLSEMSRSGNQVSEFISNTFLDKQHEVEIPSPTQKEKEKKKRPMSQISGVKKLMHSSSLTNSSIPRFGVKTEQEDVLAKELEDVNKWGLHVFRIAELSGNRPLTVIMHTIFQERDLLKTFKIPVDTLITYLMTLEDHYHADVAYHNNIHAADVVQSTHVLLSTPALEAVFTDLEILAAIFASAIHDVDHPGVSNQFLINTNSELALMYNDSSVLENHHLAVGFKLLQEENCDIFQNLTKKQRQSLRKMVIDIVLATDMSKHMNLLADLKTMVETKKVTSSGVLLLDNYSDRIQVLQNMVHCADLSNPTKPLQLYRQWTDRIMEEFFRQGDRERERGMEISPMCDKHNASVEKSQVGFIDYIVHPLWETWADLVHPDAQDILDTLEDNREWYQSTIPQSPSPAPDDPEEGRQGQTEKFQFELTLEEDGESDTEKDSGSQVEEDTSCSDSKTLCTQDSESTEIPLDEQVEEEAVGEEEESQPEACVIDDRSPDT

Ratio IC50 (Homo sapiens) | IC50 ([1]; read-out: IC50) [nM] | IC50 ([2]; read-out: IC50) [nM] | IC50 [1] | IC50 [2] | IC50 [3] [nM] | IC50 [4] [nM] | Compound
– | – | – | Not Active | Not Active | – | – | O=C1NCCN1c1ccc(Nc2nc(-c3cccc(Cl)c3)nc(C3CC3)n2)cc1
1.2 | 1860 | 2270 | – | – | – | – | O=C(O)Cc1ccc(Oc2nc(-c3cccc(Cl)c3)nc(C3CC3)n2)cc1
5 | 237 | 1180 | – | – | – | – | O=C(O)Cc1ccc(Nc2nc(-c3cccc(Cl)c3)nc(C3CC3)n2)cc1
0.4 | 402 | 160 | – | – | – | – | CCc1nc(Nc2ccc(NS(N)(=O)=O)cc2)nc(-c2cccc(Cl)c2)n1
0.04 | 165 | 7 | – | – | – | – | CCc1nc(Nc2ccc(CC#N)cc2)nc(-c2cccc(Cl)c2)n1
1 | – | – | – | – | – | – | CCc1nc(Nc2ccc(-c3nnn[nH]3)cc2)nc(-c2cccc(Cl)c2)n1
2 | 135 | 268 | – | – | – | – | O=C1CCC(NC2=NC(C3CC3)NC(c3cccc(Cl)c3)=N2)CN1 (stereo not given)
2 | 135 | 268 | – | – | – | – | O=C(O)c1ccc(Nc2nc(-c3ccc(Cl)cc3)nc(C3CC3)n2)cc1
1.1 | 12 | 13 | – | – | – | – | CCc1nc(Nc2ccc(C#N)cc2)nc(-c2cccc(Cl)c2)n1
0.86 | 845 | 726 | – | – | – | – | O=C(O)Cc1ccc(CNc2nc(-c3cccc(Cl)c3)nc(C3CC3)n2)cc1
0.4 | 46 | 20 | – | – | – | – | O=C(O)c1ccc(Nc2nc(-c3cccc(Cl)c3)nc(C3CC3)n2)cc1
0.4 | 1570 | 600 | – | – | – | – | CCc1nc(Nc2ccc(C(C)(C)C(=O)O)cc2)nc(-c2cccc(Cl)c2)n1
– | 126 | 132 | – | – | – | – | CCc1nc(Nc2ccc(-c3nn[nH]n3)cc2)nc(-c2cccc(Cl)c2)n1

The remaining lines, values behind:

Compound | Ratio IC50 (Homo sapiens) | IC50 ([1]; read-out: IC50) [nM] | IC50 ([2]; read-out: IC50) [nM] | IC50 [1] | IC50 [2] | IC50 [3] [nM] | IC50 [4] [nM]
CCc1nc(Nc2ccc(C(=O)O)cc2)nc(-c2ccc(Cl)s2)n1 | 1 | 261 | 251 | – | – | – | –
CCc1nc(Nc2ccc(CC(=O)O)cc2)nc(-c2cccc(Cl)c2)n1 | 0.9 | 781 | 681 | – | – | – | –
O=C(O)Cc1ccc(Nc2nc(-c3ccc(Cl)cc3)nc(C3CC3)n2)cc1 | 1.5 | 3770 | 5610 | – | – | – | –
CCc1nc(Nc2ccc(CC(=O)O)cc2)nc(-c2ccc(F)cc2)n1 | 0.5 | 1460 | 727 | – | – | – | –
CCc1nc(Nc2ccc(CC(=O)O)cc2)nc(-c2ccoc2)n1 | – | 2780 | – | – | – | – | –
Cc1nc(Nc2ccc(CC(=O)O)cc2)nc(-c2ccco2)n1 | 1.2 | 18800 | 22300 | – | – | – | –
O=C(O)Cc1ccc(Nc2nc(-c3cccc(F)c3)nc(C3CC3)n2)cc1 | 1.5 | 1440 | 2110 | – | – | – | –
CC(C)c1nc(Nc2ccc(F)cc2)nc(-c2ccc(Cl)s2)n1 | – | 8820 | 886 | – | – | – | –
CC(C)c1nc(Nc2ccc(CC(=O)O)cc2)nc(-c2ccc(Cl)s2)n1 | 1.8 | 1940 | 3580 | – | – | – | –
CCc1c(C)nc(-c2ccc(Cl)s2)nc1Nc1ccc(CC(=O)O)cc1 | – | – | – | – | – | 2000 | 55
CCc1nc(Nc2ccc(C(=O)O)cc2)nc(-c2cccc(Cl)c2)n1 | 0.9 | 241 | 213 | – | – | – | –
CCOc1nc(Nc2ccc(OC)cc2)nc(OCC)n1 | – | – | – | – | – | 2300 | 6700
Cc1nc(Nc2ccc(CC(=O)O)cc2)nc(-c2ccc(Cl)s2)n1 | – | 1290 | – | – | – | – | –
CCc1nc(Nc2ccc(C(C)C(=O)O)cc2)nc(-c2cccc(Cl)c2)n1 (stereo not given) | 0.09 | 1090 | 96 | – | – | – | –
O=C(O)Cc1ccc(Nc2nc(-c3ccc(Cl)s3)nc(C3CC3)n2)cc1 | 5.9 | 251 | 1490 | – | – | – | –
CCCc1nc(Nc2ccc(CC(=O)O)cc2)nc(-c2ccc(Cl)s2)n1 | – | 2450 | – | – | – | – | –
Cc1nc(Nc2ccc(C(=O)O)cc2)nc(-c2ccc(Cl)s2)n1 | – | 4050 | – | – | – | – | –
CCc1nc(Nc2ccc(Cc3nnn[nH]3)cc2)nc(-c2cccc(Cl)c2)n1 | 0.9 | 69 | 63 | – | – | – | –
CC(C)c1nc(Nc2ccc(C(=O)O)cc2)nc(-c2ccc(Cl)s2)n1 | 1 | 220 | 219 | – | – | – | –
O=C(O)Cc1ccc(CNc2nc(-c3ccc(Cl)cc3)nc(C3CC3)n2)cc1 | 0.38 | 2280 | 859 | – | – | – | –
CCc1nc(Nc2ccc(CC(=O)O)cc2)nc(-c2ccc(Cl)s2)n1 | 2.3 | 383 | 865 | – | – | – | –
CCc1nc(Nc2ccc(F)cc2)nc(-c2ccc(Cl)s2)n1 | 0.15 | 1390 | 207 | – | – | – | –
